Source: patent US20100234442A1, “Compositions and Methods for Treatment and Prevention of Cardiovascular Disease” (Nucitec S.A. de C.V., priority 2009, published 2010)

Tested on: hypercholesterolemic patients
Experiment: 8-week, randomized, double-blind, active-controlled, parallel-group study of vascular markers in hypercholesterolemic patients
Format: in vivo, human
Description: This was a 8-week, randomized, double-blind, active-controlled, parallel-group study. All patients provided written, informed consent before the start of the study.
Patients, investigator staff, persons performing the assessment, and data analysts remained blinded to the identity of the treatment from the time of randomization until data base lock. Treatments were all identical in packaging, labeling, schedule of administration and appearance. Treatments were administered to patients via a single pill.
20 hypercholesterolemic patients, ≧45 years old, were compared in this study. Patients were classified into one of four groups, consisting of five patients in each group.
Group I was treated with a single daily dose of simvastatin alone (20 mg). Group II was treated with a single daily dose simvastatin (20 mg) and acetylsalicylic acid (75 mg). Group III was treated with a single daily dose of simvastatin (20 mg) and enalapril (10 mg). Group IV was treated with a single daily dose of simvastatin (20 mg), acetylsalicylic acid (75 mg), and enalapril (10 mg). All patients were treated for eight weeks.
The primary efficacy variable was the change from the baseline to the final assessment in vascular markers of LDL-Cholesterol (LDL-C), C Reactive Protein (CRP), Interleukin 6 (IL-6), Systolic Blood Pressure (SBP), and nitric oxide (NO).

[1] = change from baseline to final, eight weeks
[2] = final assessment after eight weeks, single daily oral dose

## CCC(C)(C)C(=O)O[C@H]1C[C@@H](C)C=C2C=C[C@H](C)[C@H](CC[C@@H]3C[C@@H](O)CC(=O)O3)[C@H]21 [Simvastatin alone, simvastatin]
baseline, before treatment
  IL-6 Baseline: 4.6 pg/mL
  Nitric oxide Baseline: 87 µmol/L
  SBP Baseline: 142 mmHg
baseline, before treatment, five patients per group
  LDL-C Baseline: 159 mg/dL
[1]
  CRP % Δ: −18%
  IL-6 % Δ: −39%
  LDL-C % Δ: −38%
  Nitric oxide % Δ: −9%
  SBP % Δ: −0.8%
[2]
  IL-6 Final: 2.8 pg/mL
  LDL-C Final: 99 mg/dL
  Nitric oxide Final: 79 µmol/L
  SBP Final: 141 mmHg
